Measured values as given in ChEMBL document CHEMBL5154806, “Synthesis and Profiling of Highly Selective Inhibitors of Methyltransferase DOT1L Based on Carbocyclic C-Nucleosides” (J Med Chem, 2022).
pIC50: −log10 of the molar value. Each block holds one molecule with its values, some of them ahead of it.

Experiments:
[1] = biological target: T1, Histone-lysine N-methyltransferase, H3 lysine-79 specific (Homo sapiens, UniProt Q8TEK3); assay: Inhibition of human DOT1L by hotspot PMT activity assay
Target sequence in this assay (Q8TEK3 whole entry): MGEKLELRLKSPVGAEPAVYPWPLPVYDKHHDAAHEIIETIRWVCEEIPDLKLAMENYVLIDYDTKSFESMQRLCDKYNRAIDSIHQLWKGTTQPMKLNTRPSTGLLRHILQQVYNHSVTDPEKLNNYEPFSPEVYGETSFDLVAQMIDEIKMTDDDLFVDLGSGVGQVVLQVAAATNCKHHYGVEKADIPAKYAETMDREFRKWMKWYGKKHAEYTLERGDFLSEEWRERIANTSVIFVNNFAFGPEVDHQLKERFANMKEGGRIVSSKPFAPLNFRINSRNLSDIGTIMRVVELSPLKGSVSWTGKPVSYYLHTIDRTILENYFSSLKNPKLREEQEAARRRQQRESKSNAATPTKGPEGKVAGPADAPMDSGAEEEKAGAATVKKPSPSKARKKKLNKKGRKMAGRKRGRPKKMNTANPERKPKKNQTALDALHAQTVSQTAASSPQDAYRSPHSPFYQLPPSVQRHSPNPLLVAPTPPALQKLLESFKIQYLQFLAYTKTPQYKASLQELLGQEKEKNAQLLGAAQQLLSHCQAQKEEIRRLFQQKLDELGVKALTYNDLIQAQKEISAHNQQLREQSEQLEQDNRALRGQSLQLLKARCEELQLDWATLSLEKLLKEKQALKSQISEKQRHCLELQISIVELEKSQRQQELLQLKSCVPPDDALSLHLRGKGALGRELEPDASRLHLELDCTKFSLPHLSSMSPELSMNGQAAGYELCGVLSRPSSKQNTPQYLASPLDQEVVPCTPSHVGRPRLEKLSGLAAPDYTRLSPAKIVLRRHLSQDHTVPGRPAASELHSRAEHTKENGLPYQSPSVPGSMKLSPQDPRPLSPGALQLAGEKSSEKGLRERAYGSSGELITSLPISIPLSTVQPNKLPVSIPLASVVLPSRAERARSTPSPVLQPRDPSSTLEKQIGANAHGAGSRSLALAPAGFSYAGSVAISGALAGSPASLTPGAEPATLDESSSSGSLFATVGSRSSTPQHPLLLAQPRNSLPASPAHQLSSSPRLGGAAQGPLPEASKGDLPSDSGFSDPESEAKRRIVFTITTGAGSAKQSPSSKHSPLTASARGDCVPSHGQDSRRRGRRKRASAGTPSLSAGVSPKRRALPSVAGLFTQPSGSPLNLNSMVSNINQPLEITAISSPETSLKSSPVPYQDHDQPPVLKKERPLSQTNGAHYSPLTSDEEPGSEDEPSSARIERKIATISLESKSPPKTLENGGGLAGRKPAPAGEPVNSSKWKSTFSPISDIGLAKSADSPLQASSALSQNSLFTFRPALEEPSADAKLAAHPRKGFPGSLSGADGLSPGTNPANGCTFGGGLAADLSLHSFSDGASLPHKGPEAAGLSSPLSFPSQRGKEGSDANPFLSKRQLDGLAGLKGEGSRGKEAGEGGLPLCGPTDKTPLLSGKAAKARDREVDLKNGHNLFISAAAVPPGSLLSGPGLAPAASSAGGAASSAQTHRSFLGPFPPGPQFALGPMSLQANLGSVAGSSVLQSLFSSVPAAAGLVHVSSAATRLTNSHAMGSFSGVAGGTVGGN

[2] = biological target: T1, Histone-lysine N-methyltransferase, H3 lysine-79 specific; assay: Binding affinity to human DOT1L assessed as binding free energy difference
Target sequence in this assay (Q8TEK3 whole entry, looked up): as the sequence (Q8TEK3 whole entry) above

[3] = Clearance in fasted BALB/c mouse at 20 mg/kg, iv administered upto 600 mins by HPLC-MS/MS analysis; assay type: ADME, organism-based; conditions: in vivo
[4] = AUC (0 to infinity) in fasted BALB/c mouse at 20 mg/kg, iv administered upto 600 mins by HPLC-MS/MS analysis; assay type: ADME, organism-based; design: dose 20 mg/kg, time < 600 min, route iv; conditions: in vivo
[5] = Volume of distribution in fasted BALB/c mouse at 20 mg/kg, iv administered upto 600 mins by HPLC-MS/MS analysis; assay type: ADME, organism-based; conditions: in vivo
[6] = Elimination rate constant in fasted BALB/c mouse at 20 mg/kg, iv administered upto 600 mins by HPLC-MS/MS analysis; assay type: ADME, organism-based; conditions: in vivo
[7] = Tmax in fasted BALB/c mouse at 20 mg/kg, po administered upto 600 mins by HPLC-MS/MS analysis; assay type: ADME, organism-based; conditions: in vivo
[8] = Half life in fasted BALB/c mouse at 20 mg/kg, iv administered upto 600 mins by HPLC-MS/MS analysis; assay type: ADME, organism-based; conditions: in vivo
[9] = Elimination rate constant in fasted BALB/c mouse at 20 mg/kg, po administered upto 600 mins by HPLC-MS/MS analysis; assay type: ADME, organism-based; conditions: in vivo
[10] = Half life in fasted BALB/c mouse at 20 mg/kg, po administered upto 600 mins by HPLC-MS/MS analysis; assay type: ADME, organism-based; conditions: in vivo
[11] = Tmax in fasted BALB/c mouse at 20 mg/kg, iv administered upto 600 mins by HPLC-MS/MS analysis; assay type: ADME, organism-based; conditions: in vivo
[12] = Cmax in fasted BALB/c mouse at 20 mg/kg, po administered upto 600 mins by HPLC-MS/MS analysis; assay type: ADME, organism-based; design: time < 600 min, dose 20 mg/kg, route po; conditions: in vivo
[13] = Cmax in fasted BALB/c mouse at 20 mg/kg, iv administered upto 600 mins by HPLC-MS/MS analysis; assay type: ADME, organism-based; design: time < 600 min, dose 20 mg/kg, route iv; conditions: in vivo
[14] = AUC (0 to t) in fasted BALB/c mouse at 20 mg/kg, po administered upto 600 mins by HPLC-MS/MS analysis; assay type: ADME, organism-based; design: dose 20 mg/kg, time < 600 min, route po; conditions: in vivo
[15] = AUC (0 to t) in fasted BALB/c mouse at 20 mg/kg, iv administered upto 600 mins by HPLC-MS/MS analysis; assay type: ADME, organism-based; design: dose 20 mg/kg, time < 600 min, route iv; conditions: in vivo
[16] = AUC (0 to infinity) in fasted BALB/c mouse at 20 mg/kg, po administered upto 600 mins by HPLC-MS/MS analysis; assay type: ADME, organism-based; design: dose 20 mg/kg, time < 600 min, route po; conditions: in vivo
[17] = Bioavailability in fasted BALB/c mouse at 20 mg/kg, iv administered upto 600 mins by HPLC-MS/MS analysis; assay type: ADME, organism-based; conditions: in vivo

deltaG [2]: -3 kJ/mol
SMILES: CC(C)N(CCCNC(=O)Nc1ccccc1)C[C@H]1C[C@@H](c2ccc3c(N)ncnn23)[C@H](O)[C@@H]1O

deltaG [2]: 11 kJ/mol
SMILES: CN(CCCNC(=O)Nc1ccccc1)C[C@H]1C[C@@H](c2cnn3c(N)ccnc23)[C@H](O)[C@@H]1O

deltaG [2]: 14 kJ/mol
SMILES: CN(CCCNC(=O)Nc1ccccc1)C[C@H]1C[C@@](O)(c2ccc3c(N)ncnn23)[C@H](O)[C@@H]1O

deltaG [2]: -1 kJ/mol
SMILES: CN(CCCNC(=O)Nc1ccc(C(C)(C)C)cc1)C[C@H]1C[C@@H](c2ccc3c(N)ncnn23)[C@H](O)[C@@H]1O (stereo in doubt; (+)-25)

pIC50 [1]: < 5.00
SMILES: CN(CCCNC(=O)Nc1ccc(C(C)(C)C)cc1)C[C@H]1C[C@@H](c2cnn3c(N)ccnc23)[C@H](O)[C@@H]1O

Second part, the molecule before the results:

SMILES: CC(C)N(C[C@@H]1C[C@H](c2ccc3c(N)ncnn23)[C@@H](O)[C@H]1O)[C@H]1C[C@@H](CCc2nc3cc(C(C)(C)C)ccc3[nH]2)C1
pIC50 [1]: 7.10

SMILES: CN(CCCNC(=O)Nc1ccc(C(C)(C)C)cc1)C[C@H]1C[C@@](O)(c2ccc3c(N)ncnn23)[C@H](O)[C@@H]1O
pIC50 [1]: < 5.00

SMILES: CC(C)N(CCCNC(=O)Nc1ccc(C(C)(C)C)cc1)C[C@H]1C[C@@H](c2ccc3c(N)ncnn23)[C@H](O)[C@@H]1O
pIC50 [1]: 6.53

SMILES: CN(CCCNC(=O)Nc1ccc(C(C)(C)C)cc1)C[C@H]1C[C@@H](c2ccc3c(N)ncnn23)[C@H](O)[C@@H]1O (stereo in doubt; (-)-25)
clearance [3]: 6.48 L/h/kg | AUC(0-inf) [4]: 3.08 µg·h/mL | Vd [5]: 18.4 L/kg | k el at 10 h [6]: 9.82e-05 s⁻¹ | Tmax [7]: 5 min | half-life [8]: 118 min | k el at 10 h [9]: 0.0017 s⁻¹ | half-life [10]: 6.78 min | Tmax [11]: 5 min | Cmax [12]: 0.0364 µg/mL | Cmax [13]: 8.32 µg/mL | pIC50 [1]: 7.72 | AUC(0-t) at 10 h [14]: 0.00807 µg·h/mL | AUC(0-t) at 10 h [15]: 3.02 µg·h/mL | AUC(0-inf) [16]: 0.00853 µg·h/mL | bioavailability [17]: 0.3%
